Tested on: A431 cells
Assay: Apoptosis, annexin V/propidium iodide (AV/PI) test
Format: cell-based, human
Details: 12 h; for death by targeted apoptosis of mutated cancer cells: A431 vs HEK001, linalool 320 nL/mL, carvacrol 60 nL/mL, thymol 30 nL/mL; for cytotoxic efficacy compared with the complex essential oils: concentrations equal to those present in the essential oil treatments
Method: These three molecules were incubated for 12 h with non-mutated immortalized keratinocytes (HEK001) and mutated cancerous keratinocytes (A431). The percentage of cells in apoptosis was measured by the annexin V/propidium iodide test. The concentrations of the molecules used were equal to those present during the treatments with the essential oils. Example: the concentration of linalool used here represents the equivalent of 80% of linalool present in the essential oil of rosewood.
Annexin V/Propidium Iodide Test:
One of the markers for apoptosis is the translocation of phosphatidyl-serine from the internal face towards the external face of the plasma membrane (translocation, allowing apoptotic bodies to be recognized and phagocyted by the macrophages).
The AV/PI test can be used to detect this event because of the affinity of the protein annexin V for phosphatidyl-serine. Propidium iodide, which targets DNA, can be used to distinguish early apoptotic cells from cells in late apoptosis and/or in necrosis.
After the desired treatment time, the medium was eliminated, the cells were harvested (by trypsinization), centrifuged and rinsed in 4 mL of PBS 1×. Tagging was carried out following the instructions of the manufacturer (Kit Vybrant, Molecular Probe). The cells were rapidly taken up in 100 μl of tagging buffer, to which 6 μl of annexin V and 3 μg/mL of propidium iodide per sample was added. The cells were then incubated for 30 min in the dark (at ambient temperature). Four hundred μL of tagging buffer was added before measuring the fluorescence of the annexin V (at 530 nm) and of the propidium iodide (at 610 nm).

| Structure (SMILES) | apoptotic A431 cells (60 nL/mL) | death by targeted apoptosis of mutated cancer cells | cytotoxic efficacy compared with the complex essential oils | apoptotic A431 cells (30 nL/mL) |
| --- | --- | --- | --- | --- |
| Cc1ccc(C(C)C)cc1O [carvacrol] | ~25% | qualitatively conserved | lower than with complex essential oils | – |
| Cc1ccc(C(C)C)c(O)c1 [thymol] | – | qualitatively conserved | lower than with complex essential oils | approximately 15% |
| C=CC(C)(O)CCC=C(C)C (centres unmarked) [linalool] | – | qualitatively conserved | lower than with complex essential oils | – |
